This is an account of results in US11787782B2, “Combinations of a 4-pyrimidinesulfamide derivative with active ingredients for the treatment of endothelin related diseases” (IDORSIA PHARMACEUTICALS LTD, priority 2017, dated 2023).

For series [1], the system named is conscious, male spontaneously hypertensive rats. The series can be described thus: Acute effects on top of Exforge HCT in SHRs (telemetry). The series is classed as in vivo, rat. The settings on record: for Blood pressure when added on top of Exforge HCT: aprocitentan 100 mg/kg or spironolactone 300 mg/kg oral, Exforge HCT 1.6/0.1/0.25 mg/kg. The procedure:
The acute effects of Exforge HCT® (i.e. a fixed dose combination of valsartan/amlodipine/hydrochlorothiazide; dosage adapted for 1.6 mg/kg/0.1 mg/kg/0.25 mg/kg for valsartan/amlodipine/hydrochlorothiazide, respectively) on blood pressure, in particular on mean arterial blood pressure (hereafter “MAP”), and heart rate (hereafter “HR”) in combination with ACT-132577 or spironolactone were also evaluated by means of telemetry in conscious, male spontaneously hypertensive rats (hereafter “SHRs”-see details about this model in Atanur et al., Genome Res. (2010), 20, 791-803).
9 SHRs per treatment group were used for this test. To match the maximal effect on blood pressure of co-administered drug in this model, aprocitentan 100 mg/kg was administrated orally on the 3rd day following 3-day oral administration of Exforge HCT® mg/kg and spironolactone 300 mg/kg was co-administered orally with Exforge HCT® on the 1st day followed by 2 days of Exforge HCT® administration. The results obtained regarding MAP are summarised in FIGS. 19 and 20 wherein each data point is presented as a 6-hour mean.

The test system of series [2] is conscious, male hypertensive deoxycorticosterone acetate salt rats. In words: Acute effects on top of Exforge HCT in DOCA-salt rats (telemetry). The settings on record: for Blood pressure when added on top of Exforge HCT: aprocitentan 10 mg/kg or spironolactone 300 mg/kg oral, Exforge HCT 3.2/0.2/0.5 mg/kg. The class given is in vivo, rat. From the text: Res. (1975), 36, 300-309). In the DOCA-salt rats, hypertension is induced by the combination of unilateral nephrectomy, implantation of pellets of the mineralocorticoid analog DOCA, and provision of 1% sodium chloride in drinking water. 7-9 DOCA-salt rats per treatment group were used for this test. The results obtained regarding MAP are summarised in FIGS. 21 and 22 wherein each data point is presented as a 6-hour mean.

The nature of series [3]: Storage at room temperature (crystal form stability, XRPD and HPLC control). The series is classed as physicochemical. The settings on record: 20-25° C. The procedure: All XRPD patterns for the solid forms described herein have been obtained as described hereafter. X-ray powder diffraction patterns were collected on a Bruker D8 Advance X-ray diffractometer equipped with a Lynxeye detector operated with CuKα-radiation in reflection mode (coupled two Theta/Theta). Typically, the X-ray tube was run at of 40 kV/40 mA. A step size of 0.02° (2θ) and a step time of 76.8 sec over a scanning range of 3-50° in 2θ were applied. The divergence slit was set to fixed 0.3. Powders were slightly pressed into a silicon single crystal sample holder with depth of 0.5 mm and samples were rotated in their own plane during the measurement. Diffraction data are reported using combined Cu Kα1 and Kα2 radiation, without Kα2 stripping. The accuracy of the 2θ values as provided herein is in the range of +/−0.1-0.2° as it is generally the case for conventionally recorded X-ray powder diffraction patterns. A sample of Form A crystals of the COMPOUND (as obtained according to Example 1 above) has been stored at a temperature of 20-25° C. at 92% relative humidity for 2 months. […] The same result was obtained after storage for 8 weeks under the above conditions. […] A sample of Form B crystals of a dichloromethane solvate of the COMPOUND (as obtained according to Example 2 above) has been stored in a closed vial ([…] of Form B crystals being placed in a closed 4 mL vial) at a temperature of 20-25° C. for about 3 weeks. […] A sample of Form K crystals of a dimethylsulfoxide solvate of the COMPOUND (as obtained according to Example 7 above) has been stored in a closed vial ([…] of Form K crystals being placed in a closed 4 mL vial) at a temperature of 20-25° C. for about 3 weeks.

The test system of series [4] is conscious, male hypertensive Dahl salt-sensitive rats. In words: Acute effects on MAP and HR by telemetry in Dahl salt-sensitive rats. The series is classed as in vivo, rat. Conditions: Dahl-S rats. The procedure: The acute effects of ACT-132577 on blood pressure, in particular on mean arterial blood pressure (hereafter “MAP”), and heart rate (hereafter “HR”) were evaluated by means of telemetry in conscious, male hypertensive Dahl salt-sensitive rats (hereafter “Dahl-S rats”—see details about this model in Rapp, Hypertension (1982), 4, 753-763). Elevated blood pressure is induced in Dahl-S rats by providing 1% sodium chloride in drinking water. Groups of 6-7 Dahl-S rats were used for the vehicle (7.5% gelatin aqeuous solution) and each dose of ACT-132577 tested (0.3, 1, 3, 10, 30, 100, and 300 mg/kg). Effects of ACT-132577 on HR and MAP were calculated for individual animals relative to the 24 h period before administering. The results obtained regarding MAP (maximal MAP decrease observed over 6 consecutive hours) are summarised in FIG. 9 (data are presented as mean±standard error of the mean). In summary, a dose of 10 mg/kg ACT-132577 decreased MAP by 19±4 mm Hg in Dahl-S rats. In contrast to MAP, HR was not affected.

The conditions of series [5]: in comparison to corresponding alkylated derivatives; cited from earlier work.
In series [6] the test system is conscious, male hypertensive deoxycorticosterone acetate salt rats. The series can be described thus: Chronic effects of repeated oral administration in DOCA-salt rats. The series is classed as in vivo, rat. The procedure:
The chronic effects of repeated administrations of doses of 1, 10 and 100 mg/kg/day of ACT-132577, in particular mean arterial blood pressure (hereafter “MAP”), and heart rate (hereafter “HR”), were evaluated in conscious, male hypertensive deoxycorticosterone acetate salt rats (hereafter “DOCA-salt rats”-see details about this model in Gavras et al., Circ. Res. (1975), 36, 300-309). In the DOCA-salt rats, hypertension is induced by the combination of unilateral nephrectomy, implantation of pellets of the mineralocorticoid analog DOCA, and provision of 1% sodium chloride in drinking water. The results of the DOCA-salt rats treated with ACT-132577 were compared to those obtained for Wistar rats or for DOCA-salt rats that received only the vehicle (4% gelatin aquous solution).

Another series relates to male Wistar rats. The series can be described thus: Effect on fluid retention (haematocrit) in Wistar rats. The class given is in vivo, rat. Conditions: single oral dose 1-30 mg/kg, 24 hours after administration. The procedure: A decrease in haematocrit (Hct) or haemoglobin occurs secondary to an increase in plasma volume and can be used as a marker of fluid retention. A single oral dose of aprocitentan (1-30 mg/kg) or vehicle (gelatin) was administered by gavage to male Wistar rats. Twenty-four hours after administration, sublingual blood was sampled under isoflurane-induced anesthesia. Haematocrit was measured using a hematology analyser.

Series [7] deals with conscious, male hypertensive deoxycorticosterone acetate salt rats. The series can be described thus: Acute effects on MAP and HR by telemetry in DOCA-salt rats. The series is classed as in vivo, rat. The procedure:
The acute effects of ACT-132577 on blood pressure, in particular on mean arterial blood pressure (hereafter “MAP”), and heart rate (hereafter “HR”) were evaluated by means of telemetry in conscious, male hypertensive deoxycorticosterone acetate salt rats (hereafter “DOCA-salt rats”—see details about this model in Gavras et al., Circ. Res. (1975), 36, 300-309). In the DOCA-salt rats, hypertension is induced by the combination of unilateral nephrectomy, implantation of pellets of the mineralocorticoid analog DOCA, and provision of 1% sodium chloride in drinking water. Groups of 6-11 DOCA-salt rats were used for the vehicle (7.5% gelatin aquous solution) and each dose of ACT-132577 tested (0.3, 1, 3, 10, 30, 100, and 300 mg/kg). Effects of ACT-132577 on HR and MAP were calculated for individual animals relative to the 24 h period before administering. The results obtained regarding MAP (maximal MAP decrease observed over 6 consecutive hours) are summarised in FIG. 10 (data are presented as mean±standard error of the mean). In summary, a dose of 10 mg/kg ACT-132577 decreased MAP by 29±6 mm Hg in DOCA-salt rats. In contrast to MAP, HR was not affected.

Series [8] has as its system conscious, male spontaneously hypertensive rats. In words: Acute effects on MAP and HR by telemetry in spontaneously hypertensive rats. The class given is in vivo, rat. Conditions: SHRs. The procedure: The acute effects of ACT-132577 on blood pressure, in particular on mean arterial blood pressure (hereafter “MAP”), and heart rate (hereafter “HR”) were evaluated by means of telemetry in conscious, male spontaneously hypertensive rats (hereafter “SHRs”—see details about this model in Atanur et al., Genome Res. (2010), 20, 791-803). Groups of 4-6 SHRs were used for the vehicle (7.5% gelatin aquous solution) and each dose of ACT-132577 tested (1, 3, 10, 30, 100, and 300 mg/kg). Effects of ACT-132577 on HR and MAP were calculated for individual animals relative to the 24 h period before administering. The results obtained regarding MAP (maximal MAP decrease observed over 6 consecutive hours) are summarised in FIG. 11 (data are presented as mean±standard error of the mean). In summary, a dose of 100 mg/kg ACT-132577 decreased MAP by 18±4 mm Hg in SHRs. In contrast to MAP, HR was not affected.

The nature of series [9]: Hygroscopicity by gravimetric vapor sorption (GVS). The series is classed as physicochemical. The text has this:
Mass increase of a sample as obtained according to Example 1 in the first cycle from 40% r.h. to 80% r.h. corresponds to 0.4%. At 95% r.h. 2.2% moisture were taken up in a reversible way without hysteresis upon drying.

Another series relates to patients with rHT. The settings on record: 14 week phase 3 trial, cited from earlier work.
[10] abbreviates: 10 mg/kg, mean±standard error of the mean.
[11] abbreviates: DOCA-salt rats, 1, 10 and 100 mg/kg/day oral for 4 weeks.
Setting [12] is: DOCA-salt rats, chronic oral administration.

With `CC(=O)S[C@@H]1CC2=CC(=O)CC[C@]2(C)[C@H]2CC[C@@]3(C)[C@@H](CC[C@@]34CCC(=O)O4)[C@H]12` [spironolactone, reference compound], the “Blood pressure when added on top of Exforge HCT” value in series [1] and in series [2] was “further reduced blood pressure” each time.

As to `NS(=O)(=O)Nc1ncnc(OCCOc2ncc(Br)cn2)c1-c1ccc(Br)cc1` [Form B, {5-(4-bromo-phenyl)-6-[2-(5-bromo-pyrimidin-2-yloxy)-ethoxy]-pyrimidin-4-yl}-sulfamide], in [3] (closed 4 mL vial, about 3 weeks), the “Crystal form by X-ray powder diffraction after storage in a closed vial” value is recorded as “transformed into Form A crystals”.

As for `NS(=O)(=O)Nc1ncnc(OCCOc2ncc(Br)cn2)c1-c1ccc(Br)cc1` [ACT-132577, {5-(4-bromo-phenyl)-6-[2-(5-bromo-pyrimidin-2-yloxy)-ethoxy]-pyrimidin-4-yl}-sulfamide], the “Blood pressure when added on top of Exforge HCT” value in series [1] and in series [2] was “further reduced blood pressure” each time. Also, the “Blood pressure reduction compared with spironolactone, on top of Exforge HCT” value in series [1] (aprocitentan 100 mg/kg vs spironolactone 300 mg/kg) and in series [2] (aprocitentan 10 mg/kg vs spironolactone 300 mg/kg) was “greater blood pressure reduction than spironolactone” throughout. In addition, the “MAP decrease (maximal decrease over 6 consecutive hours)” value in [4] (setting [10]) came to 19±4 mm Hg; in [7] (setting [10]), 29±6 mm Hg; in series [8] (100 mg/kg, mean±standard error of the mean), 18±4 mm Hg. In addition, the “Heart rate (HR)” value in series [4] (doses 0.3-300 mg/kg) was “not affected”; in series [6] (setting [11]) it was “without changing HR”; in [7] (doses 0.3-300 mg/kg), “not affected”; in series [8] (doses 1-300 mg/kg), “not affected”. In addition, the Clearance in vivo result in [5] was “much shorter clearance”. For the same molecule, the Half-life in vivo entry in series [5] was “much longer half-life”. Also, the “DOCA-salt-induced increase in MAP” value in [6] (setting [11]) is given as “dose-dependently attenuated the DOCA-salt-induced increase in MAP”. In addition, the Left ventricular hypertrophy result in series [6] (setting [12]) is given as “tended to decrease left ventricular hypertrophy”. In [6] (setting [12]), the “Plasma concentrations of N-terminal pro-brain natriuretic peptide (NTproBNP)” value is given as “dose-dependent decrease”. Moreover, in [6] (setting [12]), the Renal blood flow entry is given as “dose-dependently increased renal blood flow”. Also, the Renal vascular resistance entry in series [6] (setting [12]) is given as “decreased renal vascular resistance”. The “Haematocrit (Hct), marker of fluid retention” value with male Wistar rats is recorded as “did not impact on haematocrit”.

`NS(=O)(=O)Nc1ncnc(OCCOc2ncc(Br)cn2)c1-c1ccc(Br)cc1` [Form A, {5-(4-bromo-phenyl)-6-[2-(5-bromo-pyrimidin-2-yloxy)-ethoxy]-pyrimidin-4-yl}-sulfamide]: the Moisture taken up in [9] (at 95% r.h., reversible, without hysteresis upon drying) was determined as 2.2%. This molecule registered a Mass increase in series [9] (first cycle from 40% r.h. to 80% r.h.) of 0.4%. In series [9] (sample obtained according to Example 1), the “Hygroscopicity (GVS)” value is “slightly hygroscopic”. Also, the “Crystal form by X-ray powder diffraction after storage” value was “still consisting only in Form A crystals” in series [3] (92% relative humidity, 2 months) and “same result” in series [3] (92% relative humidity, 8 weeks). Besides, the “HPLC control after storage (change in peak area %, degradation)” value in series [3] (92% relative humidity, 8 weeks) is given as “no significant degradation”.

With `COc1cc(OC)nc(O[C@H](C(=O)O)C(OC)(c2ccccc2)c2ccccc2)n1` [darusentan], the “Fluid retention/edema (most frequent adverse event)” value with patients with rHT (12% in each of the other groups) is listed as 28%. In addition, in the series on patients with rHT, the “Primary endpoint systolic blood pressure” value is given as “failed to show significant treatment effect” and the “Reduction of ambulatory blood pressure” value is listed as “demonstrated efficacy”.
